Results: patent US10858388B2, “Selective progesterone receptor modulator (SPRM) regimen” (BAYER PHARMA AKTIENGESELLSCHAFT, priority 2015, dated 2020)

Tests used:
Type in all cases: in vivo, human
[1] = test system: subjects with uterine fibroids; assay: Study 17541: amenorrhea, 3-month vs 6-month treatment (Example 5)
Method: A randomized, parallel-group, double-blind, placebo-controlled, multi-center study to assess efficacy of a dose of 2 mg of Compound 1 where primary efficacy variable is Amenorrhea, in subjects with uterine fibroids over 3 months [1×12 weeks] and 6 months [2×12 weeks without treatment break].
Test drug: Compound 1 Doses: 2 mg, once daily
(§1) Route of administration: Oral
Duration of treatment: 2×12 weeks without treatment break
(§2) Women, 18 to 50 years old, with uterine fibroids documented by transvaginal or abdominal ultrasound at screening with at least 1 uterine fibroid with largest diameter 3 cm and Heavy Menstrual Bleeding (HMB) 80∃ ml were eligible for enrolment in the study.
Eligible subjects will be equally randomized to one of the treatment groups (Placebo, 2 mg of Compound 1). Treatment will start during the first week of the menstrual cycle following randomization. The treatment period will consist of 1×12 and 2×12 weeks (84 days) of daily tablet intake. • Treatment A1: 2 mg of Compound 1 (12 weeks), 2 mg of Compound 1 (12 weeks) without treatment break • Treatment A2: Placebo (12 weeks), 2 mg of Compound 1 (12 weeks).
Efficacy Measurement: • daily documentation of bleeding intensity (electronic diary or eDiary) • Menstrual Pictogram MP (electronic diary or eDiary).
Onset of amenorrhea is defined by the first day for which the menstrual blood loss (assessed by MP) for all subsequent 28-day periods up to the end of the treatment period is less than 2 ml.
The primary endpoint amenorrhea (no/yes) was based on the bleeding intensity recorded in the eDiary/Daily bleeding diary.

[2] = test system: subjects with uterine fibroids; assay: Study 17541: endometrium thickness, 3-month vs 6-month treatment without break (Example 6); details: 2 mg once daily, 13 subjects, blinded, preliminary data, 3 or 6 months without break
Method: A randomized, parallel-group, double-blind, placebo-controlled, multi-center study to assess efficacy of a dose of 2 mg of Compound 1 where primary efficacy variable is Endometrium thickness, in subjects with uterine fibroids over 3-month vs 6-month with or without treatment break.
as §1
Duration of treatment: 2×12 weeks (A1) or 1×12 weeks (A2) without treatment break
as §2
Number of Women: 13 subjects having finished the treatment so far.
Eligible subjects were equally randomized to one of the treatment groups (Placebo, 2 mg of Compound 1). Treatment period was started during the first three days of the bleeding episode following randomization or ongoing at randomization. The treatment period will consist of 3 months (12 weeks) or 6 months [2×12 weeks (84 days)] of daily tablet intake without treatment break. • Treatment A1: 2 mg of Compound 1 (12 weeks), 2 mg of Compound 1 (12 weeks). • Treatment A2: Placebo (12 weeks), 2 mg of Compound 1 (12 weeks).
After the end of treatment period, subjects were followed up for 12 weeks. […]

[3] = test system: subjects with uterine fibroids; assay: Study 17541: endometrium thickness, 2x3-month treatment with break period (Example 7); details: 2 mg once daily, 6 subjects, blinded, 2x12 weeks with 1 bleeding episode break or 1x12 weeks
Method: A randomized, parallel-group, double-blind, placebo-controlled, multi-center study to assess efficacy of a dose of 2 mg of Compound 1 where primary efficacy variable is Endometrial thickness, in subjects with uterine fibroids over 2×3-month with break period allowing bleeding episode.
as §1
Duration of treatment: 2×3-month [2×12 weeks]+one bleeding episode (B1) and 1×3-month [1×12 weeks] (B2) without treatment break
Women, 18 to 50 years old, with uterine fibroids documented by transvaginal or abdominal ultrasound at screening with at least 1 uterine fibroid with largest diameter 3.0 cm and heavy menstrual bleeding (HMB) […] were eligible for enrolment in the study.
Number of Women: 6 subjects that have finalized the treatment
Eligible subjects were equally randomized to one of the treatment groups (Placebo, 2 mg of Compound 1). Treatment period was started during the first three days of the bleeding episode following randomization or ongoing at randomization. The treatment period was consisting of daily tablet intake without treatment break. • Treatment B1: 2 mg of Compound 1 (12 weeks), 1 bleeding episode, 2 mg of Compound 1 (12 • weeks). • Treatment B2: Placebo (12 weeks), 1 bleeding episode, 2 mg of Compound 1 (12 weeks).
Efficacy Measurement: • endometrial biopsies, • cervical smear, • transvaginal ultrasound (TUV) (endometrial thickness, ovaries). […]

[4] = test system: healthy subjects; assay: Amenorrhea in healthy subjects
Excerpt: Compound 1 is a potent Selective Progesterone Receptor Modulator (SPRM) and more particularly a competitive Progesterone Receptor (PR) antagonist creating alternatives for the treatment of Uterine Fibroids. […] Amenorrhea corresponds to the major objective of the treatment i.e. control of excessive uterine bleeding.

[5] = 6 months (2x12 weeks without treatment break)

In the case of `C[C@]12C[C@H](c3ccc(S(C)(=O)=O)cc3)C3=C4CCC(=O)C=C4CC[C@H]3[C@@H]1CC[C@@]2(O)C(F)(F)C(F)(F)F` [Compound 1, (11β,17β)-17-Hydroxy-11-[4-(methylsulphonyl)phenyl]-17-(pentafluoroethyl)estra-4,9-dien-3-one], the “Amenorrhea until 6 months of treatment” value ([1]; 2 mg once daily, 2x12 weeks without treatment break, preliminary data) was “amenorrhea observed after 1×12 weeks is maintained”, the “Rate of subjects with endometrial thickness above 18 mm” value [1, 5] was “not found to be increased” and the “Rates of adverse events with regard to ovarian cysts or bleeding” value [1, 5] was “do not show increased rates of adverse events”. For the same molecule, the Endometrial size [2] was at most 18 mm, the “Treatment-emergent critical endometrial findings” value [2] was “no treatment-emergent critical endometrial findings occurred” and the Endometrial size [3] was at most 18 mm. The “Treatment-emergent critical endometrial findings” value [3] was “no treatment-emergent critical endometrial findings occurred” and the Amenorrhea [4] was “Amenorrhea was observed”.
